“Also recorded” adds a separate entry of the source.
What was measured:
[1] = test system: purpura; test: Recurrent purpura in a patient under topical treatment; type: in vivo, human; conditions: 0.001%, 4.5 months, one person with recurrent purpura; FIG. 8
Description: (§1) Patients were provided with a proprietary topical formulation of rapamycin (0.001%; equivalent to 10 μM) or a placebo formulation that is identical with the exception that rapamycin was not included. For seborrheic keratosis, patients were instructed to apply the formulation to a localized area of the skin up to 1 cm around the lesion, in the evening before bed. Patients were instructed to apply the cream to the dorsal side of the hand once a day, in the evening before bed.
A person was treated with rapamycin (0.001%) for 4.5 months. The patient was a cancer survivor, multiple round of chemotherapy, recurrent purpura with subsequent scarring. […] Treatment was discontinued at end of trial.

[2] = test system: human skin; test: Histology (Hematoxylin Eosin stain) of dorsal hand skin biopsies after topical cream; type: in vivo; conditions: topical cream 10 μM vs placebo
Description: as §1
(§2) The cream included the following ingredients: Polyoxyethylene (40) stearate, Polyoxyethylene (20) sorbitan monooleate, glycerol monostearate, paraffin, cetyl alcohol, mineral oil, water, propylene glycol, sorbitol, glycerol, methylparaben.
(§3) Patients were provided with a 4 week supply of creams labeled by a number with no indication of whether they contained rapamycin. Patients were instructed to contact the study personnel if any irritation or negative reaction occurred at any time.
Hematoxylin Eosin stain of human skin biopsies from the dorsal hand of a patient following the application of a topical cream either containing rapamycin (10 μM) or placebo are shown in FIG. 2. Histologic evidence of actinic (solar) elastoses is indicated with an arrow.
40× magnified images of human skin biopsies from the dorsal hand of a patient following the application of a topical cream either containing rapamycin (10 μM) or placebo are shown in FIG. 3.
40× magnified images of human skin biopsies from the dorsal hand of a patient following the application of a topical cream either containing rapamycin (10 μM) or placebo are shown in FIG. 4.

[3] = test system: human skin; test: Clinical appearance of the hand after rapamycin cream versus placebo-treated hand; type: in vivo; conditions: 10 μM (0.001%) cream, 6 months, person, placebo on left hand; FIG. 7
Description: as §1, §2, §3
Placebo treated left hand is provided for comparison.

[4] = test system: p16; test: Nuclear p16 immunohistochemistry of human skin biopsies after topical treatment; type: in vivo; conditions: formulation of 1 micromolar rapamycin, 0.5 cc daily, 240 days, vs vehicle control; FIG. 1
Description: Human skin was treated with a formulation of 1 micromolar rapamycin or an identical formulation containing a vehicle control for 240 days. 0.5 cc of the formulation was applied daily. Skin biopsies (N=8) were processed for immunohistochemistry and nuclear p16 was quantified using the Leica Aperio software system.

[5] = test system: human cells; test: Protection of cultured cells from UV-induced cell death; type: cell-based
Description: Cells grown in the presence or absence of 1 nM rapamycin were exposed to increasing amounts of UV radiation and cell numbers were determined following 24 hours. […] In FIG. 9B, a representative photograph of the control culture 24 hours following UV is presented. Note the typical hallmarks of apoptosis including rounded floating cells and typical cell blebbing.

[6] = test system: cytokeratin 5/6; test: Cytokeratin 5/6 staining of dorsal hand skin biopsies after topical cream; type: in vivo, human; conditions: topical cream 10 μM vs placebo, dorsal hand biopsy; FIG. 5 and FIG. 6 (40×)
Description: as §1, §2
Human skin biopsies from the dorsal hand of a patient following the application of a topical cream either containing rapamycin (10 μM) or placebo were stained with antibodies recognizing cytokeratin 5/6 (brown staining), which is a marker for basal cells in the epidermis.

[7] = dorsal hand biopsy, 40× images, FIG. 4

CO[C@H]1C[C@@H]2CC[C@@H](C)[C@@](O)(O2)C(=O)C(=O)N2CCCC[C@H]2C(=O)O[C@H]([C@H](C)C[C@@H]2CC[C@@H](O)[C@H](OC)C2)CC(=O)[C@H](C)/C=C(\C)[C@@H](O)[C@@H](OC)C(=O)[C@H](C)C[C@H](C)/C=C/C=C/C=C/1C [rapamycin]
purpura [1]: significant reduction in purpura | histological markers of aged/damaged skin (actinic (solar) elastoses) ([2]; dorsal hand biopsies, multiple patients, FIG. 2): a reduction in the presence of these histological markers of aged/damaged skin | arrangement of the epithelial layer ([2]; dorsal hand biopsy, 40× images, FIG. 3): more orderly arrangement of the epithelial layer | arrangement of collagen fibers [2, 7]: more orderly arrangement of collagen fibers | solar elastoses [2, 7]: fewer solar elastoses | clinical improvement of the hand [3]: clinical improvement | p16 levels in human skin (nuclear p16, immunohistochemistry) [4]: reduced the p16 levels in human skin | cell death following UV irradiation (percent cell loss) ([5]; 1 nM rapamycin, increasing amounts of UV radiation, cell numbers after 24 hours, P=0.0044, FIG. 9A): reduction in cell death | apoptotic cells in culture after UV ([5]; culture grown in 1 nM rapamycin, 24 hours following UV, FIG. 9C): notable lack of apoptotic cells | location of cytokeratin 5/6 (CK 5/6) staining in the epidermis [6]: more focally located in the basal layer of the skin; also recorded: remained restricted to the basal layer

Source: patent US20210379026A1, “METHODS FOR TREATING OR PREVENTING SKIN CONDITIONS” (Drexel University, priority 2018, published 2021)
